In patent US6403810B2, “Thiophene derivatives” (Hoffmann-La Roche Inc., priority 2000, dated 2002):

Assays:
[1] = test system: rat elastase-induced emphysema; experiment: Repair of alveoli in elastase-induced emphysema (rat model); format: in vivo, male Sprague Dawley rats; details: oral, once daily starting 21 days post elastase injury, morphometric analysis of lung sections
Method: A RAR selective agonist according to the invention was evaluated for its effects on alveolar repair in a rat model for rat elastase-induced emphysema in accordance to D. Massaro et al. Nature Medicine1997, 3, 675. Animals were divided into treatment groups of approximately eight. Lung inflammation and alveolar damage was induced in male Sprague Dawley rats by a single instillation of pancreatic elastase(porcine derived, Calbiochem) 2 U/gram body mass. Three weeks post injury, all-trans retinoic acid or RAR agonist test compound was dissolved in dimethyl-sulfoxide (20 mg/ml) and stored at −20 C. Fresh working stocks were prepared daily by dilution in PBS to a final concentration of 2mg/ml. Animals were dosed once daily with the retinoid by intraperitoneal injection or orally, starting 21 days post injury. Control groups were challenged with elastase and 21 days later treated with Vehicle (DMSO/PBS) for 14 days. Animals were sacrificed 24 hours after the last dose by exsanguination under deep anesthesia.
The lungs were inflated with 10% neutral buffered formalin by intratracheal instillation at a constant rate (1 ml/gram body mass/min). The lung was excised and immersed in fixative for 24 hours prior to processing. Standard methods were used to prepare 5 μm paraffin sections. Sections were stained with Hematoxylin and Eosin (H%E). Computerized Morphometric analysis was performed to determine the average alveolar size and alveolar number.

Structure (SMILES)	% repair area ([1]; dose 0.0001 mg/kg) [%]	% repair area ([1]; dose 0.001 mg/kg) [%]	% repair area ([1]; dose 0.01 mg/kg) [%]	% repair area ([1]; dose 0.1 mg/kg) [%]	melting point [°C]
CCCCCCc1cc2c(cc1/C=C/c1ccc(C(=O)O)s1)C(C)(C)CCC2(C)C [Example 9, (E)-5-[2-(3-Hexyl-5,5,8,8-tetramethyl-5,6,7,8-tetrahydro-naphthalen-2-yl)-vinyl]-thiophene-2-carboxylic Acid]	38	42	18	42	–
CCCCCc1cc2c(cc1/C=C/c1ccc(C(=O)O)s1)C(C)(C)CCC2(C)C [Example 9.2, (E)-5-[2-(3-pentyl-5,5,8,8-tetramethyl-5,6,7,8-tetrahydro-naphthalen-2-yl)-vinyl]thiophene-2-carboxylic acid]	–	–	–	–	176 to 177
